One data set deals with T1, UGT1A1 (Homo sapiens, UniProt P22309).
T1 sequence (P22309 26-533): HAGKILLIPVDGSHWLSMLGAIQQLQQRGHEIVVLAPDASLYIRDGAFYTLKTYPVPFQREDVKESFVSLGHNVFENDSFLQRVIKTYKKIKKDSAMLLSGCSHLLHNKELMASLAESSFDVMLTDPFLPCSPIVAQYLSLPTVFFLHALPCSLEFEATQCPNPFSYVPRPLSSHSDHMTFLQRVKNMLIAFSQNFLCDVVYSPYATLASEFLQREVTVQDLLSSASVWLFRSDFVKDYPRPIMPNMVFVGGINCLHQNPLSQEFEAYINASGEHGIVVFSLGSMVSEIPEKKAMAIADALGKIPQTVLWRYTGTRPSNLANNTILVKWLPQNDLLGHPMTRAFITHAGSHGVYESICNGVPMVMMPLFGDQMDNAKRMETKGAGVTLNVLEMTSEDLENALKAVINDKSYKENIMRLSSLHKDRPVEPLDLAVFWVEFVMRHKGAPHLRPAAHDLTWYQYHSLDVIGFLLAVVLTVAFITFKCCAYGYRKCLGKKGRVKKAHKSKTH
Description: Estradiol-3 glucuronidation by recombinant UGT1A1. The data set is classed as biochemical. To be noted: for Estradiol-3 glucuronidation, % of the control activity (measured at 0 mM): UGT1A1, 100 μM estradiol, n=3.

A further data set addresses UGT2B15 (Homo sapiens, UniProt P54855). Description: e-4-hydroxy-tamoxifen glucuronidation by insect cell-expressed UGT2B15. The data set is classed as biochemical. To be noted: 20 mM saccharolactone, pH-adjusted to 7.5.
The nature of data set [1]: Effect of saccharolactone on pH of 50 mM potassium phosphate incubation buffer. The data set is classed as physicochemical.

Sequence of UGT2B15 (P54855 24-530): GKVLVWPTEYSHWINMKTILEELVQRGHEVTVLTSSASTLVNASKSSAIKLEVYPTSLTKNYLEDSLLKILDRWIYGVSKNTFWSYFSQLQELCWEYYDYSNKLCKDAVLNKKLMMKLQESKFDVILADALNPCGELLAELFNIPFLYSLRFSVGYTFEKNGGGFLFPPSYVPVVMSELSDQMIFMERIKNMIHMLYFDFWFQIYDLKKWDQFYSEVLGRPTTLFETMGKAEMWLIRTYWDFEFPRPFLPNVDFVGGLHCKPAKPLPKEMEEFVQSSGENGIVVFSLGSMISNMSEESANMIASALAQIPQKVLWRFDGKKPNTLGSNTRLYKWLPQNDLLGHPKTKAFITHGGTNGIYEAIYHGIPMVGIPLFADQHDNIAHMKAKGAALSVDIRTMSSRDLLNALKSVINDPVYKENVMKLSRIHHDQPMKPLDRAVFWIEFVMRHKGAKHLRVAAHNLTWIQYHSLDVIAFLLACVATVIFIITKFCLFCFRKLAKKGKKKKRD

Consider `O=C(O)[C@@H](O)[C@H]1OC(=O)[C@H](O)[C@H]1O` [saccharolactone, D-saccharic acid 1,4-lactone], for which the figures for the “Estradiol-3 glucuronidation, % of the control activity (measured at 0 mM)” value on UGT1A1 (5 mM saccharolactone) and on UGT1A1 (20 mM saccharolactone) were 92±2% and 87±5%, respectively. Besides, the “effect on estradiol glucuronidation” value on UGT1A1 (recombinant UGT1A1) was “no effect”. Further, the “decrease in e-4-hydroxy-tamoxifen glucuronidation activity” value at UGT2B15 is reported as 25%. Moreover, the “pH of incubation buffer after adding saccharolactone” value in data set [1] (20 mM saccharolactone in 50 mM potassium phosphate, initially pH 7.5) came out at 6.8. The “effect on pH of incubation buffer” value in data set [1] (saccharolactone up to 5 mM in 50 mM potassium phosphate pH 7.5) was “minimal effect on pH”.

The values above are taken from paper PMC2697495 (The Journal of pharmacy and pharmacology, 2008).
